Legend:
PC3 cells [1] = assay: Annexin V-PE / 7-AAD apoptosis and necrosis assay (flow cytometry); format: cell-based, human; conditions: 24 hours treatment
Description: The anti-cancer efficacy of a drug was also evaluated based on the ability of the compound to induce apoptosis and/necrosis in cancer cells. […] Compound 1. Compound 3, and Compound 4 were tested based on their ability to induce apoptosis and necrosis in vitro. The protocol was as follows:
The apoptotic death of cells was determined using an Annexin V-PE apoptosis detection kit (Cat #559763; BD Biosciences. CA. USA) according to the manufacturer's protocol. In brief. PC3 cells were treated with DMSO (0.3%). IPA3. Compound 1. Compound 3 and Compound 4 for 24 hours. At the end of treatment, cells were trypsinized, washed with PBS and stained with annexin V-Phycoerythrin (PE) and 7-Amino-Actinomycin (7-AAD). The stained cells were analyzed using a flow cytometer within 1 h of staining.

PC3 cells [2] = assay: Cell-monolayer scratch assay (cell motility); format: cell-based, human; conditions: 36 hours, half of the IC50 doses from the MTT assay
Description: The motility of cancer cells is an index of their ability to come out of the primary tumor, invade, and metastasize to distant tissues. MetasTx tested Compound 1. Compound 3, and Compound 4 for their inhibitory effect on human metastatic prostate cancer (PC3) cells by using a ‘cell-monolayer scratch assay”, a reliable technique to determine the rate of cancer cell motility.
A total of 0.5×10^5 PC3 cells were plated per well on 6 well plates to obtain 95% confluent monolayers of cells after overnight incubation. The following day, a linear scratch (wound) was made using a 200 μl pipette tip and the detached cells were washed away by sterile phosphate-buffered saline (PBS). Images of scratches were captured from three different locations under a phase-contrast microscope at 4× magnification. The monolayers were treated with the desired doses of vehicle or drugs (half of the IC50 doses determined from the MTT assay). The cells were allowed to migrate for 36 hours, and images of the wound were re-captured from the same locations. The percentage of healed areas was determined using the NIH ImageJ software by measuring the distance of imported images in Microsoft Office PowerPoint (Microsoft Office Inc.) at the same magnification.

PC3 cells [3] = assay: MTT assay, cancer cell metabolic activity and proliferation; format: cell-based; conditions: Homo sapiens, PC-3, 24 h treatment, read-out: IC50, anti-proliferative effect (MTT)
Description: A MTT (3-[4,5-dimethylthiazol-2-yl]-2,5 diphenyl tetrazolium bromide) assay was used to assess cancer cell metabolic activity and proliferation.
The protocol was as follows: • A total of 4000 PC3 cells were seeded per well in 96-well plates. Following attachment, cells were treated with vehicle control DMSO, IPA3, Compound 1, Compound 3, and Compound 4 at various doses as indicated for 24 h. Growth inhibition was determined by MTT [3-(4,5-dimethylthiazol-2-yl)-2,5-diphenyltetrazolium bromide] (Sigma-Aldrich, St. Louis, MO, USA; catalog No. M2128) assay. The MTT solution was added to the media at a final concentration of 0.8 mg/mL and cells were incubated at 37° C. for 2 hours. After aspiration of media, formazan crystals were dissolved in 100 μl of DMSO. Optical densities were measured at 570 nm using a SynergyHT plate reader (BioTek. Winooski. […]. USA). To calculate IC50 values. GraphPad Prism Software was used (GraphPad Software. San Diego, CA. USA).

PAK6 = PAK6 (Homo sapiens, UniProt Q9NQU5); conditions: group II PAK; cited from earlier work
[4] = cited from earlier work
PAK4 = PAK4 (Homo sapiens, UniProt O96013); conditions: group II PAK; cited from earlier work
PAK5 = PAK5 (Homo sapiens, UniProt Q9P286); conditions: group II PAK; cited from earlier work
PAK5, sequence (Q9P286 whole entry): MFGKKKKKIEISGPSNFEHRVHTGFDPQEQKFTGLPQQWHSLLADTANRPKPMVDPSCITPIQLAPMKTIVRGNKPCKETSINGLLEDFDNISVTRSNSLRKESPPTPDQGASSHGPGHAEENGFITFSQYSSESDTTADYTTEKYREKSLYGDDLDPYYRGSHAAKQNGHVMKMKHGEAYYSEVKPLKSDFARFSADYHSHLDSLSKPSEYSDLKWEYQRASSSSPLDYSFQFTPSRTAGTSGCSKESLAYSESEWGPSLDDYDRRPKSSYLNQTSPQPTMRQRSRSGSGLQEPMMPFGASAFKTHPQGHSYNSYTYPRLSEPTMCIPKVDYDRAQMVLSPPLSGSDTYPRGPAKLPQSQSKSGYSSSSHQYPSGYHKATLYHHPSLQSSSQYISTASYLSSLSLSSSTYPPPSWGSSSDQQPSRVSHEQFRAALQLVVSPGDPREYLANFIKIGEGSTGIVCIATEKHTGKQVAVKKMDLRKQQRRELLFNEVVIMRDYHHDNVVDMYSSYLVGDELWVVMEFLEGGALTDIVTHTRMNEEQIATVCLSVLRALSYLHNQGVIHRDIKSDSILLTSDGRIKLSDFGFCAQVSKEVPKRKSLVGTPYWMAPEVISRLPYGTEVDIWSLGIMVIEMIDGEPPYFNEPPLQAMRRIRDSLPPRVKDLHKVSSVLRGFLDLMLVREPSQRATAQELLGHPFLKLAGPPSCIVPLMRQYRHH

PAK4, sequence (O96013 whole entry, species assumed): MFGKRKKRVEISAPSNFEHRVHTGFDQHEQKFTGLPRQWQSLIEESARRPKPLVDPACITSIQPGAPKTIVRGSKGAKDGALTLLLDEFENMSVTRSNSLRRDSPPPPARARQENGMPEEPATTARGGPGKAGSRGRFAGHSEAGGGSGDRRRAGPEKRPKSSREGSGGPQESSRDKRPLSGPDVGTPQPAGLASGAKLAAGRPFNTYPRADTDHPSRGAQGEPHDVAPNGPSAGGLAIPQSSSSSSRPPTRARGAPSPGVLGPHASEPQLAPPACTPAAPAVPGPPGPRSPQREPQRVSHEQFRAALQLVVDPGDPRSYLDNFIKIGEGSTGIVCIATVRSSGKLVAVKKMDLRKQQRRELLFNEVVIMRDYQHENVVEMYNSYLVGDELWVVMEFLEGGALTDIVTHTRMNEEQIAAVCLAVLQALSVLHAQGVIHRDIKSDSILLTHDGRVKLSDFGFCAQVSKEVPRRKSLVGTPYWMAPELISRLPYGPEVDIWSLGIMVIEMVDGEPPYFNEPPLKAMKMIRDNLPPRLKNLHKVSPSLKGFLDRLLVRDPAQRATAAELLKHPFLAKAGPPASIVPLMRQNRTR
PAK6, sequence (Q9NQU5 whole entry, species assumed): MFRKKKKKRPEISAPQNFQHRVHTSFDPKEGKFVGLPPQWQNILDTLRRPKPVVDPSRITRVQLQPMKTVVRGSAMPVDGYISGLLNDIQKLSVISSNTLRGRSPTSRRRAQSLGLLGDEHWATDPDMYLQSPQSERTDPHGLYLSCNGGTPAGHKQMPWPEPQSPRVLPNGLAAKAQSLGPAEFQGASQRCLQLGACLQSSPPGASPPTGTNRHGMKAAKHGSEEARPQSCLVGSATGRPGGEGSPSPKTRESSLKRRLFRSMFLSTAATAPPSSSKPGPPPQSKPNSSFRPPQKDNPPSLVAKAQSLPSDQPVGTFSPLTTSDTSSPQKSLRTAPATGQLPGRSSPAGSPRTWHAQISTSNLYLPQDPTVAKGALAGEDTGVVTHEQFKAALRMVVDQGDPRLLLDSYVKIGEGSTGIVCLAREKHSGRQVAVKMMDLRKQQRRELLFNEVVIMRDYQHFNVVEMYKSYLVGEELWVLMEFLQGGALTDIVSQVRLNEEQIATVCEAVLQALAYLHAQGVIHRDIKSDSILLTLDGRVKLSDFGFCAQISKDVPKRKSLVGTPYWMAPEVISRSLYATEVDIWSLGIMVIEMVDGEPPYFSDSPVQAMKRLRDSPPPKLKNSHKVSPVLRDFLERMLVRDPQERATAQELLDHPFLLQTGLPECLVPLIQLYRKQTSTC

Row | IC50 (PC3 cells [3]) [µM] | Compound | induction of apoptosis and necrosis compared to vehicle (DMSO)-treated control (PC3 cells [1]) | inhibition of PC3 cell motility compared to vehicle (DMSO)-treated control (PC3 cells [2]) | total cell death compared to IPA-3 (PC3 cells [1]) | inhibition of PAK6 (PAK6) | stability in plasma [4] | inhibition of PAK4 (PAK4) | inhibition of PAK5 (PAK5)
1 | 50.2 | Oc1ccc2ccccc2c1CSc1c(O)ccc2ccccc12 [Compound 1] | robust induction of apoptosis and necrosis | did not show significant inhibition | – | – | – | – | –
2 | 22.2 | Oc1ccc2ccccc2c1CSCc1c(O)ccc2ccccc12 [Compound 3] | robust induction of apoptosis and necrosis | significant anti-cancer cell motility effects | superior efficacy in inducing total cell death | – | – | – | –
3 | 15.5 | Oc1ccc2ccccc2c1CCCc1c(O)ccc2ccccc12 [Compound 4] | robust induction of apoptosis and necrosis | significant anti-cancer cell motility effects | superior efficacy in inducing total cell death | – | – | – | –
4 | 28 | Oc1ccc2ccccc2c1SSc1c(O)ccc2ccccc12 [IPA-3, 2,2″-dihydroxy-1, 1′-dinaphthyldisulfide] | robust induction of apoptosis and necrosis | did not show significant inhibition | – | does not inhibit | not very stable | does not inhibit | does not inhibit
